Assay results from US20120128614A1, “SOLVENT, SOLUTION, CLEANING COMPOSITION AND METHODS” (SEGETIS, INC., priority 2009, published 2012).

Legend:
[1] = Castor oil solubilization into water by cosolvent; details: about 25° C.
Experimental: Mixtures of water and castor oil ChemistryStore.com; Cayce, S.C.) are prepared at 10/90, 25/75, 50/50, 75/25 and 90/10 volume ratios. […] To assess the ability of Et-LGK to solubilize castor oil into water, Et-LGK is added to each of these mixtures with vigorous stirring in a 20 mL scintillation vial at about 25° C. until a clear solution is obtained.

[2] = Soya methyl esters solubilization into water by cosolvent; details: about 25° C.
Experimental: Mixtures of water and soya methyl esters (Stepan Chemical, Northfield, Ill.) are prepared at 10/90, 25/75, 50/50, 75/25 and 90/10 volume ratios.

[3] = Isobutyl isobutyrate (IBIB) solubilization into water by cosolvent; details: about 25° C.
Experimental: To assess the ability of Et-LGK to solubilize IBIB into water, Et-LGK is added to each of these mixtures with vigorous stirring in a 20 mL scintillation vial at about 25° C. until a clear solution is obtained.

[4] = 2,2,4-Trimethyl-1,3-pentanediol (2-methylpropanoate) (Texanol) solubilization into water by cosolvent; details: about 25° C.
Experimental: To assess the ability of Et-LGK to solubilize Texanol into water, Et-LGK is added to each of these mixtures with vigorous stirring in a 20 mL scintillation vial at about 25° C. until a clear solution is obtained.
The concentrations of these comparative solvents (in volume %) needed in each case to form a clear solution is reported in Table 6 as Comparative Samples G, H and I, respectively.

[5] = Miscibility of alkyl ketal esters with water; type: physicochemical; details: for miscibility with water: miscibility assessed at 25° C. unless stated otherwise
Description: The term “miscible” and its variations (“miscibility”, etc.) are used herein as a synonym for “soluble”, as that term is defined above. A material may be fully or partially miscible in another. As used herein, a material said to be “miscible” in another, without further qualification, is miscible with that other material in all proportions, i.e., mixtures that contain only the two components form clear homogenous solutions in all weight ratios from 99.9:0.1 to 0.1:99.9. A material is said to be “highly miscible” in another material if it is soluble in the other material to the extent of at least 20 parts in 80 parts of the other material, and preferably is soluble in that other material to the extent of at least 50 parts in 50 parts of the other material. A “highly miscible” material may be soluble in the other material to the extent of 99.9 parts to 0.1 part of that other material and all lower proportions. A material is said to be “sparingly miscible” in another (or has “low miscibility” in another material) if is immiscible (as defined below) therein or otherwise not soluble in that other material to the extent of 20 parts in 80 parts of the other material. A sparingly miscible material may be soluble in that other material to the extent of no more than 10 parts in 90 parts of that other material, and may be soluble in that other material to the extent of no more than 5 parts in 95 parts of the other material. A material is said to be “immiscible” in another if it is not soluble by itself in that material to the extent of at least 1 part per 99 parts of the other material. Unless stated otherwise, miscibility is assessed at 25° C.

[6] = Bleach and peroxide stability evaluations with Et-LGK (GC/FID); type: physicochemical; details: after storing for 96 hours
Experimental: Examples 2-3 and a control (non-bleach) formulation are prepared by combining the ingredients indicated in Table 1 in a 20 ml borosilicate glass scintillation vial, followed by shaking vigorously to form a clear, colorless solution. All formulations are clear, colorless homogenous solutions after standing for three days at room temperature.
After storing for 96 hours, GC/FID analysis is performed to assess the stability of Examples 2 and 3 and Comparative Sample A. Three analyses are performed with each test sample. […] For Example 1, the Et-LGK concentration is about 9.4%, indicating a slight degradation of the material in the presence of the chlorine bleach.

[7] = Miscibility of alkyl ketal esters with organic compounds; type: physicochemical; details: methanol, ethanol, tetrahydrofuran, acetone, ethyl acetate, methylene chloride, toluene, cyclohexane, acetic acid, poly(propylene glycol), mineral, castor, canola, corn, sunflower oil
Description: The term “miscible” and its variations (“miscibility”, etc.) are used herein as a synonym for “soluble”, as that term is defined above. A material may be fully or partially miscible in another. As used herein, a material said to be “miscible” in another, without further qualification, is miscible with that other material in all proportions, i.e., mixtures that contain only the two components form clear homogenous solutions in all weight ratios from 99.9:0.1 to 0.1:99.9. A material is said to be “highly miscible” in another material if it is soluble in the other material to the extent of at least 20 parts in 80 parts of the other material, and preferably is soluble in that other material to the extent of at least 50 parts in 50 parts of the other material. A “highly miscible” material may be soluble in the other material to the extent of 99.9 parts to 0.1 part of that other material and all lower proportions. A material is said to be “sparingly miscible” in another (or has “low miscibility” in another material) if is immiscible (as defined below) therein or otherwise not soluble in that other material to the extent of 20 parts in 80 parts of the other material. […] Unless stated otherwise, miscibility is assessed at 25° C.

[8] = Bleach stability evaluation with Et-LPK (GC-FID purity); type: physicochemical; details: 8 ml Et-LPK stirred overnight with 2 ml 6% sodium hypochlorite in water; organic phase analysed
Experimental: The purity of an Et-LPK sample is measured by GC-FID (Model No. 7890A Gas Chromatograph w/ Flame Ionization Detector; Agilent Technologies, Santa Clara, Calif.). In a 20 ml vial (borosilicate scintillation; VWR International, West Chester, Pa.), 2 ml of a 6% sodium hypochlorite (bleach; Clorox Co., Oakland, Calif.) in water is mixed with 8 ml of Et-LPK to form a mixture. The mixture is shaken vigorously to produce a nearly clear solution. The mixture is further stirred overnight on a magnetic stir plate with a magnetic stir bar. Upon standing, the mixture separates into two phases—an upper organic phase and a bottom aqueous phase. A sample of the organic phase is analyzed by GC-FID to determine the purity of the Et-LPK after mixing.

[9] = Et-LPK solubilization in Et-LGK/water mixtures (visual miscibility); type: physicochemical
Experimental: Several three-component mixtures of Et-LGK, water and Et-LPK are prepared by mixing the materials the above materials at room temperature in a 20 ml scintillation vial with shaking. The mixtures prepared are analyzed visually for miscibility. Clear mixture are considered to be “miscible”, and mixtures, which are cloudy or form two or more distinct phases are considered to be “immiscible” on this test.

Compound: COC(C)COC(C)CO (centres unmarked) [DPGMME, dipropylene glycol monomethyl ether]
- Required amount of cosolvent to obtain clear solution ([1]; 10/90 Water/castor oil ratio by volume): 55.9 vol.-%
- Required amount of cosolvent to obtain clear solution ([1]; 25/75 Water/castor oil ratio by volume): 65.4 vol.-%
- Required amount of cosolvent to obtain clear solution ([1]; 50/50 Water/castor oil ratio by volume): 73.5 vol.-%
- Required amount of cosolvent to obtain clear solution ([1]; 75/25 Water/castor oil ratio by volume): 78.9 vol.-%
- Required amount of cosolvent to obtain clear solution ([1]; 90/10 Water/castor oil ratio by volume): 80.6 vol.-%
- Required amount of cosolvent to obtain clear solution ([2]; 10/90 Water/soya methyl ester ratio by volume): 48.3 vol.-%
- Required amount of cosolvent to obtain clear solution ([2]; 25/75 Water/soya methyl ester ratio by volume): 62.6 vol.-%
- Required amount of cosolvent to obtain clear solution ([2]; 50/50 Water/soya methyl ester ratio by volume): 73.6 vol.-%
- Required amount of cosolvent to obtain clear solution ([2]; 75/25 Water/soya methyl ester ratio by volume): 78.3 vol.-%
- Required amount of cosolvent to obtain clear solution ([2]; 90/10 Water/soya methyl ester ratio by volume): 78.3 vol.-%
- Required amount of cosolvent to obtain clear solution ([3]; 10/90 Water/IBIB ratio by volume): 54.5 vol. %
- Required amount of cosolvent to obtain clear solution ([3]; 25/75 Water/IBIB ratio by volume): 53.3 vol. %
- Required amount of cosolvent to obtain clear solution ([3]; 50/50 Water/IBIB ratio by volume): 58.9 vol. %
- Required amount of cosolvent to obtain clear solution ([3]; 75/25 Water/IBIB ratio by volume): 60.0 vol. %
- Required amount of cosolvent to obtain clear solution ([3]; 90/10 Water/IBIB ratio by volume): 62.5 vol. %
- Required amount of cosolvent to obtain clear solution ([4]; 10/90 Water/Texanol ratio by volume): 44.4 vol.-%
- Required amount of cosolvent to obtain clear solution ([4]; 25/75 Water/Texanol ratio by volume): 50.9 vol.-%
- Required amount of cosolvent to obtain clear solution ([4]; 50/50 Water/Texanol ratio by volume): 55.2 vol.-%
- Required amount of cosolvent to obtain clear solution ([4]; 75/25 Water/Texanol ratio by volume): 54.1 vol.-%
- Required amount of cosolvent to obtain clear solution ([4]; 90/10 Water/Texanol ratio by volume): 51.6 vol.-%

Compound: CCOC(=O)CC1(C)OCC(CO)O1 (centres unmarked) [Et-AcAcGK]
- miscibility with water [5]: miscible with water in all proportions

Compound: CCOC(=O)CCC1(C)OCCO1 [Et-LEK]
- miscible in water to the extent of [5]: about 5 parts per 95 parts of water

Compound: CCOC(=O)CCC1(C)OCC(CO)O1 (centres unmarked) [Et-LGK]
- miscibility with water [5]: miscible in water in all proportions
- Et-LGK concentration (GC/FID) ([6]; control (non-bleach) formulation): about 10%
- Et-LGK concentration (GC/FID) ([6]; formulation with 6% sodium hypochlorite solution (Table 1 'Example 1')): about 9.4%
- Et-LGK concentration (GC/FID) ([6]; formulation with hydrogen peroxide (Table 1 'Example 2')): the same as the control

Compound: CCOC(=O)CCC1(C)OCC(C)O1 (centres unmarked) [Et-LPK]
- miscible in water to the extent of [5]: about 2.5 parts in 97.5 parts of water
- dissolves or is miscible with organic compounds to the extent of [7]: at least 20 parts of the organic compound in 80 parts of ethyl-LPK
- change in purity of Et-LPK (GC-FID) versus initial purity [8]: little to no change in the purity
- Et-LPK concentration obtained in a miscible mixture with water and Et-LGK ([9]; Mixture 18): ~55 wt. %
- miscibility of Et-LPK in water ([9]; at the 10.9% level, no Et-LGK): immiscible

Compound: COC(=O)CC1(C)OCC(CO)O1 (centres unmarked) [Me-AcAcGK]
- miscibility with water [5]: miscible with water in all proportions

Compound: COC(=O)CCC1(C)OCC(CO)O1 (centres unmarked) [Me-LGK]
- miscibility with water [5]: miscible with water in all proportions

Compound: CCCCOC(=O)CCC1(C)OCC(CO)O1 (centres unmarked) [n-butyl-LGK]
- miscible with water to the extent of [5]: about 1 part per 99 parts water

Compound: CCCOC(=O)CCC1(C)OCC(CO)O1 (centres unmarked) [n-propyl-LGK]
- miscible with water to the extent of [5]: about 1 part per 99 parts water
